Reference: PubChem BioAssay (NCI)
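Following 48 hours of exposure in 96-well plates, responses at five concentrations were used to interpolate endpoints linearly. TGI: concentration producing complete growth inhibition.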

Columns and labels:
Assay in all cases: NCI anticancer screen, dose series, 48 h
[1] = tested on: MOLT-4 leukemia
[2] = tested on: OVCAR-4 ovarian
[3] = tested on: SNB-75 CNS
[4] = tested on: HL-60(TB) leukemia
[5] = tested on: SK-MEL-2 melanoma
[6] = tested on: SF-539 CNS
[7] = tested on: HOP-18 NSCLC
[8] = tested on: SF-268 CNS
[9] = tested on: SR leukemia
[10] = tested on: RXF-631 renal
[11] = tested on: NCI-H522 lung
[12] = tested on: KM12 colon
[13] = tested on: RPMI-8226 leukemia
[14] = tested on: UACC-257 melanoma
[15] = tested on: SK-MEL-28 melanoma
[16] = tested on: HCC-2998 colon
[17] = tested on: EKVX NSCLC
[18] = tested on: HOP-62 NSCLC
[19] = tested on: COLO 205 colon
[20] = tested on: KM20L2 colon
[21] = tested on: LXFL 529 NSCLC
[22] = tested on: SW-620 colon
[23] = tested on: SNB-19 CNS
[24] = tested on: SK-OV-3 ovarian
[25] = tested on: ACHN renal
[26] = tested on: M14 melanoma
[27] = tested on: A549 NSCLC
[28] = tested on: M19-MEL melanoma
[29] = tested on: MALME-3M melanoma
[30] = tested on: DMS 114 small cell lung
[31] = tested on: CCRF-CEM leukemia
[32] = tested on: DMS 273 small cell lung
[33] = tested on: RXF 393 renal
[34] = tested on: NCI-H23 lung
[35] = tested on: SN12C renal
[36] = tested on: SF-295 CNS
[37] = tested on: 786-0 renal
[38] = tested on: OVCAR-8 ovarian
[39] = tested on: HCT-116 colon
[40] = tested on: HCT-15 colon
[41] = tested on: U251 CNS
[42] = tested on: SK-MEL-5 melanoma
[43] = tested on: IGROV1 ovarian
[44] = tested on: OVCAR-5 ovarian
[45] = tested on: HOP-92 NSCLC
[46] = tested on: HT29 colon
[47] = tested on: SNB-78 CNS
[48] = tested on: UACC-62 melanoma
[49] = tested on: UO-31 renal
[50] = tested on: K-562 leukemia
[51] = tested on: OVCAR-3 ovarian
[52] = tested on: NCI-H460 lung
[53] = tested on: NCI-H226 lung
[54] = tested on: DLD-1 colon

O=C1c2ccccc2C(=O)N1CCn1nc(-c2ccccc2)cc(-c2ccccc2)c1=O
TGI [1]: > 100 µM | TGI [2]: > 100 µM | TGI [3]: > 100 µM | TGI [4]: 39 µM | TGI [5]: > 100 µM | TGI [6]: > 100 µM | TGI [7]: > 100 µM | TGI [8]: > 100 µM | TGI [9]: 69.8 µM | TGI [10]: > 100 µM | TGI [11]: > 100 µM | TGI [12]: > 100 µM | TGI [13]: 36.9 µM | TGI [14]: > 100 µM | TGI [15]: > 100 µM | TGI [16]: > 100 µM | TGI [17]: > 100 µM | TGI [18]: > 100 µM | TGI [19]: > 100 µM | TGI [20]: > 100 µM | TGI [21]: > 100 µM | TGI [22]: > 100 µM | TGI [23]: > 100 µM | TGI [24]: > 100 µM | TGI [25]: > 100 µM | TGI [26]: > 100 µM | TGI [27]: > 100 µM | TGI [28]: > 100 µM | TGI [29]: > 100 µM | TGI [30]: > 100 µM | TGI [31]: > 100 µM | TGI [32]: > 100 µM | TGI [33]: > 100 µM | TGI [34]: > 100 µM | TGI [35]: > 100 µM | TGI [36]: > 100 µM | TGI [37]: > 100 µM | TGI [38]: > 100 µM | TGI [39]: > 100 µM | TGI [40]: > 100 µM | TGI [41]: > 100 µM | TGI [42]: > 100 µM | TGI [43]: > 100 µM | TGI [44]: > 100 µM | TGI [45]: 96.8 µM | TGI [46]: > 100 µM | TGI [47]: > 100 µM | TGI [48]: > 100 µM | TGI [49]: > 100 µM | TGI [50]: > 100 µM | TGI [51]: > 100 µM | TGI [52]: > 100 µM | TGI [53]: > 100 µM | TGI [54]: > 100 µM
